Test system: Normal human melanocyte
Experiment: inhibitory action on the elongation of dendrites using human melanocytes
Type: cell-based
Excerpt: According to a method shown below, inhibitory action on the elongation of dendrites was examined using human melanocytes. (Reagent, etc.) Cells, basal media, and amplification additives were purchased from KURABO INDUSTRIES LTD. • (Cell) Normal human melanocyte • (Medium) Basal medium (Medium 154S) supplemented with reagents described below • (Reagent) Amplification additive: bovine pituitary extract (BPE) (final concentration of 0.4% v/v in the medium), fetal bovine serum • (FBS) (final concentration of 0.5% v/v in the medium), human recombinant basic fibroblast growth factor (rFGF-B) (final concentration of 3 ng/ml in the medium), hydrocortisone (final concentration of 0.18 μg/ml in the medium), insulin (final concentration 5 μg/ml in the medium), transferrin (final concentration of 5 μg/ml in the medium), phorbol 12-myristate 13-acetate (PMA) (final concentration of 10 ng/ml in the medium), heparin (final concentration of 3 μg/ml in the medium), and PSA solution (mixture solution of penicillin concentration of 50,000 Unit/ml, streptomycin concentration of 50 μg/ml, and amphotericin B concentration of 12.5 μg/ml; 1-ml addition with respect to 500 ml of the medium) (Method)
Compound 1 (methylophiopogonanone B) obtained in the above-described example of production was diluted in a basal medium so that the concentration was brought up to 100 μg/ml, to make a sample solution. […]

With `COc1ccc(CC2COc3c(C)c(O)c(C)c(O)c3C2=O)cc1` (centres unmarked) [Compound 1, 2,3-dihydro-3-[(4-methoxyphenyl)methyl]-5,7-dihydroxy-6,8-dimethyl-4H-1-benzopyran-4-on] the Length of dendrite (50 μl of 100 μg/ml sample solution added to 200 μl medium, observed 24 hours after addition, growth factors in medium) was 22 ± 6 μm and the “inhibition against the elongation of dendrites (in words)” value (vs control with basal medium only, 24 hours after addition) was “elongation is inhibited”.

Source: patent publication US7141601B2, “Dendrite elongation inhibitor for melanocyte and skin preparation for external use containing the same” (Pola Chemiocal Industries Inc., priority 2002, dated 2006)
